In patent US20220308045A1, “EXPANDABLE LIVER ORGANOIDS, MEDIA COMPOSITION FOR DIFFERENTIATION THEREOF, AND METHOD FOR PRODUCING LIVER ORGANOIDS USING THE SAME” (KOREA RESEARCH INSTITUTE OF BIOSCIENCE AND BIOTECHNOLOGY, priority 2019, published 2022):

Legend:
[1] = test system: organoids in the HM conditions; test: in vitro; conditions: human, 6 days
Procedure: (§1) The 2D differentiated mature hepatocytes (2D MH) and organoids (HM) in the HM conditions were seeded in a 24-well plate. […] Three days after seeding, the drug was added daily for 6 days, and toxicity was evaluated by calculating the number of cells using Countess II FL (Life Technology). Then, the organoids were washed with PBS, and fluorescence images were taken with a confocal microscope. Relative intensity was measured using ZEN program (Zeiss) in the same region.
(§2) Next, the effects of trovafloxacin (Sigma; PZ0015) and levofloxacin (Sigma; 28,266), which are structurally related antibiotics, on the 2D MH and the organoids in the HM conditions were compared.

[2] = target: CYP3A4 (Homo sapiens, UniProt P08684)
Procedure: Aliquots (100 μL) were diluted with 2-fold volume of acetonitrile containing carbamazepine as an internal standard for sample analysis and transferred to a 96-well plate.

[3] = test system: steatosis-induced liver organoids; test: Drug screening of autophagy library for suppressing lipid accumulation (Nile red); format: cell-based, human; conditions: 10 μM during steatosis induction; top four of 151 chemical substances
Procedure: For drug screening, the organoids were treated with 151 chemical substances at a concentration of 10 μM in the autophagy library (Selleckchem; At L2600) during the hepatic steatosis induction period. Then, the organoids were stained with Nile red and fluorescence images were analyzed with a confocal microscope.

[4] = test system: steatosis-induced liver organoids; test: Hepatic steatosis model: lipid droplets by bright field microscope and Nile red staining; format: cell-based, human; conditions: added to FA (oleate and palmitate), compared with FA alone
Procedure: The organoids in the HM conditions were seeded on a 24-well plate in order to be induced into liver organoids with steatosis. Three days after seeding, 0.5 mM oleate (Sigma; 07501) combined with 12% fatty acid-free BSA (Sigma; A8806) and 0.25 mM palmitate (Sigma; P9767) were added for 3 days, and images of accumulated lipid droplets were observed under a microscope. For Nile red staining, the samples were washed with PBS and fixed with 4% PFA at 4° C. overnight. The organoids were washed with PBS and treated with 10 μg/ml Nile red solution (Thermo Fisher; N1142) at room temperature for 5 minutes. Fluorescence images were taken with a confocal microscope.
(§3) Meanwhile, in order to confirm the effect on the induction of hepatic steatosis, the organoids in the HM conditions were treated with BSA, FA, FA+etomoxir, FA+L-carnitine, and FA+metformin, respectively, and the results were compared.

[5] = test system: steatosis-induced liver organoids; test: Hepatic steatosis model: triglyceride concentration; format: cell-based, human; conditions: added to FA, compared with BSA control or FA alone
Procedure: For the analysis of triglyceride concentration, the steatosis-induced organoids were analyzed by using triglyceride assay kit (Abcam; ab65336) according to the manufacturer's instructions. The organoids were homogenized for 5 minutes using 1 mL of a 5% NP-40 solution under the condition of heated to 80 to 100° C. The pellets were diluted 10-fold with dilution water before starting the analysis. Absorbance was measured at 570 nm by using SpectraMax microplate reader.
as §3

[6] = test system: steatosis-induced liver organoids; test: Hepatic steatosis model: mitochondrial respiration measured by OCR; format: cell-based, human; conditions: added to FA
Procedure: (§4) Oxygen consumption rate (OCR) was measured for real-time monitoring of mitochondrial toxicity. Two days before the measurement, the organoids were seeded on XFe 96-well plate (Agilent; 102416-100). The probe cartridge was adjusted overnight in a non-C02 incubator at 37° C. On the assay day, the culture medium was removed and washed with warm assay medium (Agilent Seahorse XF base medium (102353-100) supplemented with 1 mM glutamine, 1 mM pyruvate and 17.5 mM glucose for OCR measurement), and the assay medium was added. The culture dish was placed in a non-CO2 incubator at 37° C. for 1 hour, and OCR was measured using Seahorse XFe96 Flux Analyzer according to the manufacturer's instructions.
(§5) For OCR measurement, ATP synthesis inhibitors (1.5 μM oligomycin and ETC complex V inhibitor), uncoupler (1 μM FCCP), and complex I inhibitor (0.5 μM Rotenone) plus complex III inhibitor (0.5 μM antimycin A) were sequentially added at designated time points. The measured value was normalized to the number of surviving cells measured by Cell Counting Kit-8 (Dogindo; CK04-01).
as §3

[7] = in vitro; conditions: human
Procedure: as §1, §2

[8] = read-out: Cmax concentration; cited from earlier work
[9] = test system: 2D MH; test: Drug toxicity by number of cells after 6 days of treatment, 2D differentiated mature hepatocytes; format: cell-based, human; conditions: 0.8 μM and 4 μM
Procedure: as §1, §2

[10] = test system: organoids in the HM conditions; test: Oxygen consumption rate (OCR) for mitochondrial toxicity in liver organoids; format: cell-based, human; conditions: 0.8 μM and 4 μM, 6 days
Procedure: as §4, §5

[11] = patients; cited from earlier work
[12] = test system: organoids in the HM conditions; test: APAP toxic damage, regeneration and inflammatory response of liver organoids; format: cell-based, human
Procedure: Time-lapsed images were taken at 37° C. under 5% CO2 at 30-minute intervals with an Olympus IX83 inverted microscope. The diameter of the organoid was measured using ImageJ program at the designated time point from the time lapsed image. Fluorescence images were taken with a confocal microscope. In addition, the organoids were cultured for 30 minutes with 7.5 μM dihydroethidium (Sigma; D7008) for detecting ROS, 30 μM monochlorobimane (Sigma; 69899) for measuring GSH content, and 2.5 μM Syto11 (Thermo Fisher; S7573) for staining nuclei.
In addition, the expressions of high-mobility group protein 1 (HMGB1), which is a protein involved in the detection of ROS and the inflammatory response of cells, ki67, which is a marker indicating cell proliferation, E-cadherin, which is an epithelial marker, LC3B, which is an autophagy marker, and Tom20, a mitochondrial marker, were analyzed at protein level according to the method described in Experimental Example 1.

Chain of CYP3A4 (P08684 whole entry): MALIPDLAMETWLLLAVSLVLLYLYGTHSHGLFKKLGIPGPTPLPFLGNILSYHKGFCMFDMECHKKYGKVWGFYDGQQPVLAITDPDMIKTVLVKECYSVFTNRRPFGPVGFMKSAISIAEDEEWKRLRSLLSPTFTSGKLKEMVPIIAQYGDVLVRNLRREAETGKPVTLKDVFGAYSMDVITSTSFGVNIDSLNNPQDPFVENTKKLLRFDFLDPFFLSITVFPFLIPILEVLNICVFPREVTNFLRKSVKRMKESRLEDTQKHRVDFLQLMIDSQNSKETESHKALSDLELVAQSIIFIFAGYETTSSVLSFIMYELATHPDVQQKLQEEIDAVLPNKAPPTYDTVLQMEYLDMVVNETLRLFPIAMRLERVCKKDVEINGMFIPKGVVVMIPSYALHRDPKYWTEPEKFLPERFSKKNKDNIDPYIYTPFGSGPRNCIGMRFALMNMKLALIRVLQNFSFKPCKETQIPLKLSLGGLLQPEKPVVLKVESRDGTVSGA

## Cc1c(C)c2c(c(C)c1O)CCC(C)(COc1ccc(CC3SC(=O)NC3=O)cc1)O2 (stereo not drawn) [troglitazone, Troglitazone]
[1]
  toxic response, 2D MH versus organoids: different in 2D and 3D models

## C[C@]12CC[C@H]3[C@@H](CCC4=CC(=O)CC[C@@]43C)[C@@H]1CC[C@@H]2O [testosterone]
[2]
  metabolism to 6β-hydroxytestosterone: directly hydroxylated

## COc1ccc(-c2ccc3c(N4CCOCC4)nc(N4C[C@@H](C)O[C@@H](C)C4)nc3n2)cc1CO [KU-0063794]
[3]
  phenotype of hepatic steatosis and lipid accumulation in drug screening: capable of restoring lipid accumulation

## CN(C)C(=N)N=C(N)N [metformin]
[4]
  accumulation of intracellular lipid droplets / lipid accumulation: slightly reduced
[5]
  intracellular triglyceride concentration: not reduced

## CC(=O)Nc1ccc(C(=O)Nc2ccccc2N)cc1 [Tacedinalin, Tacedinaline]
[3]
  phenotype of hepatic steatosis and lipid accumulation in drug screening: capable of restoring lipid accumulation

## CO[C@H]1C[C@@H]2CC[C@@H](C)[C@@](O)(O2)C(=O)C(=O)N2CCCC[C@H]2C(=O)O[C@H]([C@H](C)C[C@@H]2CC[C@@H](OCCO)[C@H](OC)C2)CC(=O)[C@H](C)/C=C(\C)[C@@H](O)[C@@H](OC)C(=O)[C@H](C)C[C@H](C)/C=C/C=C/C=C/1C [Everolimus]
[3]
  phenotype of hepatic steatosis and lipid accumulation in drug screening: capable of restoring lipid accumulation

## CCOC(=O)[C@@]1(CCCCCCOc2ccc(Cl)cc2)CO1 [etomoxir]
[4]
  accumulation of intracellular lipid droplets / lipid accumulation: significant accumulation
[5]
  intracellular triglyceride concentration: significantly increased
[6]
  mitochondrial respiration measured by OCR: significantly reduced

## C[C@H]1COc2c(N3CCN(C)CC3)c(F)cc3c(=O)c(C(=O)O)cn1c23 [levofloxacin]
[7]
  cytotoxicity at 6 days, 100 μM: 36%
[8]
  Cmax: 23.8 µM

## O=C(CCCCCN1C(=O)c2cccc3cccc(c23)C1=O)NO [Scriptaid]
[3]
  phenotype of hepatic steatosis and lipid accumulation in drug screening: capable of restoring lipid accumulation

## N[C@@H]1[C@H]2CN(c3nc4c(cc3F)c(=O)c(C(=O)O)cn4-c3ccc(F)cc3F)C[C@@H]12 [trovafloxacin]
[9]
  number of cells: little change
[10]
  OCR (mitochondrial respiration): reduction of OCR
[8]
  Cmax: 4.1 µM
[11]
  reported side effect: patient death due to liver failure

## CC(=O)Nc1ccc(O)cc1 [APAP, acetaminophen]
[12]; 20 mM APAP, dihydroethidium staining
  reactive oxygen species (ROS): increased
[12]; 20 mM APAP, immunofluorescence
  expression amounts of Ki67, E-cadherin, and Tom20: reduced
[12]; 20 mM APAP, immunofluorescence, migration to the cytoplasm
  expression of HMGB1: reduced
[12]; 20 mM daily for 7 days
  organoid morphology: severe morphological damage
[12]; 20 mM for 60 hours from day 2, new HM medium on day 4.5
  organoid morphology and size after recovery: recovered on day 7
[12]; APAP for 60 hours versus APAP for 5 days
  expression of LC3B: more strongly induced
[12]; APAP for 60 hours, then new HM medium on day 4.5, qRT-PCR
  expression of IL-10: significantly increased
[12]; APAP for 7 days, qRT-PCR
  expressions of proinflammatory mediators (IL-1β, IL-6, IL-8) and pathological mediators (TNF-α and FasL): strongly induced

## C[N+](C)(C)C[C@H](O)CC(=O)[O-] [L-carnitine]
[4]
  accumulation of intracellular lipid droplets / lipid accumulation: significantly reduced
[6]
  mitochondrial respiration measured by OCR: recovered
